Laboratory results as given in ChEMBL document CHEMBL5665443, “Enzyme Inhibitor Single Concentration assay results for EUbOPEN Chemogenomics Library” (2024).

Assays:
[1] = molecular target: T1, Single-strand selective monofunctional uracil DNA glycosylase (Homo sapiens) (UniProt Q53HV7); conditions: Hit No;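 also: enzymatic SMUG1 assay coupled with APE1, reading fluorescence at 594 nm released when a quenched double-stranded DNA oligonucleotide substrate is cleaved and separated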
T1 sequence (whole entry): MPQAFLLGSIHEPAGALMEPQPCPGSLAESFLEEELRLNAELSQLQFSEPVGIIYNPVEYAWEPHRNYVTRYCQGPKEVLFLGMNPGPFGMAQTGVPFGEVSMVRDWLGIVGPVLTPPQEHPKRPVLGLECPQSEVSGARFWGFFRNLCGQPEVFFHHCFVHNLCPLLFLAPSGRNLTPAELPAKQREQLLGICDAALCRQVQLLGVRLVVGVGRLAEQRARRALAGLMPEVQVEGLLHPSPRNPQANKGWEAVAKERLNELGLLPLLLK
Description: Inhibition of SMUG1 by quantifying inhibition of SMUG1-mediated cleavage and dissociation of quenched duplex DNA oligonucleotides, measured as fluorescence at 594 nm. To generate a functional strand incision and increase turn-over this assay is coupled to APE1.

[2] = molecular target: G/T mismatch-specific thymine DNA glycosylase (Homo sapiens) (UniProt Q13569); conditions: Hit No;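 also: human TDG cleavage of quenched duplex DNA oligonucleotides coupled to APE1, strand release read as fluorescence at 594 nm, inhibition of TDG activity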
Sequence of G/T mismatch-specific thymine DNA glycosylase (Homo sapiens) (Q13569 whole entry): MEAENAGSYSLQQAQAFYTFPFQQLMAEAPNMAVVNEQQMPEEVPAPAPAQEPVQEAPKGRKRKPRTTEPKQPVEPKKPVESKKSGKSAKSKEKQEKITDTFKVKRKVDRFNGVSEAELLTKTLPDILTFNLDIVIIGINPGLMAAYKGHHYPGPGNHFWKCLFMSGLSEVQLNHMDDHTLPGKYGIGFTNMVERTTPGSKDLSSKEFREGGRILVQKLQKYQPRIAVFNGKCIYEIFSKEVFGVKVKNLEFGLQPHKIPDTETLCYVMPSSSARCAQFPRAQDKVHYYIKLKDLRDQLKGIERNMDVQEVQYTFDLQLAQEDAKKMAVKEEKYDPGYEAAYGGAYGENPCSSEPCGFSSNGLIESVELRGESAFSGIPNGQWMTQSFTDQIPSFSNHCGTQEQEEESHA
Description: Inhibition of TDG by quantifying inhibition of TDG-mediated cleavage and dissociation of quenched duplex DNA oligonucleotides, measured as fluorescence at 594 nm. To generate a functional strand incision and increase turn-over this assay is coupled to APE1.

[3] = molecular target: Uracil-DNA glycosylase (Homo sapiens) (UniProt P13051); conditions: Hit No;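 also: UNG excision on a quenched double-stranded DNA oligo probe, with APE1 added for strand incision and turnover, read as fluorescence at 594 nm as strands separate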
Sequence of Uracil-DNA glycosylase (Homo sapiens) (P13051 whole entry): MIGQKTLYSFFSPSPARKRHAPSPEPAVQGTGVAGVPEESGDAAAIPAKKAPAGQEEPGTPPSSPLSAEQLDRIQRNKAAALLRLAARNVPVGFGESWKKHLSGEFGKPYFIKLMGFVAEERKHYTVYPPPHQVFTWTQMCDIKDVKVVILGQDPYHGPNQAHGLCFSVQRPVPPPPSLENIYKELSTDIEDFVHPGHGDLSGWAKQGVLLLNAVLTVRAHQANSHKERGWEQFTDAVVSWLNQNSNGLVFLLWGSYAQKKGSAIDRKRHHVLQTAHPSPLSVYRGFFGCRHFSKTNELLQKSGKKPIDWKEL
Description: Inhibition of UNG by quantifying inhibition of UNG-mediated cleavage and dissociation of quenched duplex DNA oligonucleotides, measured as fluorescence at 594 nm. To generate a functional strand incision and increase turn-over this assay is coupled to APE1.

[4] = molecular target: Endonuclease 8-like 1 (Homo sapiens) (UniProt Q96FI4); conditions: Hit No;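 also: fluorescence at 594 nm from quenched duplex DNA oligonucleotides released by NEIL1 cleavage and strand separation, reported as reduction of this enzyme activity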
Sequence of Endonuclease 8-like 1 (Homo sapiens) (Q96FI4 whole entry): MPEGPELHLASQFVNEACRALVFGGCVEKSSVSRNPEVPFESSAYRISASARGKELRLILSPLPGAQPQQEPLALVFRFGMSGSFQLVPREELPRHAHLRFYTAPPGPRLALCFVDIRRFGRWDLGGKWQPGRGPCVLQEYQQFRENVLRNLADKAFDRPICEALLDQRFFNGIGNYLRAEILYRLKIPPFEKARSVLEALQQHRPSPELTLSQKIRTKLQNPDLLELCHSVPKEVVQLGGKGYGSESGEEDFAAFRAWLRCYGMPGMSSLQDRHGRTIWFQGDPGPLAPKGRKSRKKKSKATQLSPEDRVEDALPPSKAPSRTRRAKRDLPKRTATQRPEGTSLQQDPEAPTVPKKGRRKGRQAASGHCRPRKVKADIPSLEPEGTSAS
Description: Inhibition of NEIL1 by quantifying inhibition of NEIL1-mediated cleavage and dissociation of quenched duplex DNA oligonucleotides, measured as fluorescence at 594 nm.

[5] = molecular target: T2, Endonuclease III-like protein 1 (Homo sapiens) (UniProt P78549); conditions: Hit No;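 also: enzyme assay tracking NTHL1 cutting and release of a quenched double-stranded DNA oligo substrate, read as fluorescence at 594 nm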
T2 sequence (whole entry): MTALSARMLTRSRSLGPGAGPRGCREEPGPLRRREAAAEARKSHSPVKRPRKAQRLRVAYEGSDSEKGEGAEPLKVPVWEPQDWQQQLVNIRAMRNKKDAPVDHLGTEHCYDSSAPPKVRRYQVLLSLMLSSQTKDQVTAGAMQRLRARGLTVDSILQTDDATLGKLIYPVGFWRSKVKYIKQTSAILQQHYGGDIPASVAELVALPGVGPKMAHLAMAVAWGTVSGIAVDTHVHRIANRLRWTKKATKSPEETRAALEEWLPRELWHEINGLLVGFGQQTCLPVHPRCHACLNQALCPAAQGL
Description: Inhibition of NTHL1 by quantifying inhibition of NTHL1-mediated cleavage and dissociation of quenched duplex DNA oligonucleotides, measured as fluorescence at 594 nm.

[6] = molecular target: N-glycosylase/DNA lyase (Homo sapiens) (UniProt O15527); conditions: Compound Concentration 10.0 uM, Hit No;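 also: OGG1 cleavage of a quenched duplex DNA oligonucleotide, coupled to APE1 for strand incision, read as fluorescence at 594 nm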
Sequence of N-glycosylase/DNA lyase (Homo sapiens) (O15527 whole entry): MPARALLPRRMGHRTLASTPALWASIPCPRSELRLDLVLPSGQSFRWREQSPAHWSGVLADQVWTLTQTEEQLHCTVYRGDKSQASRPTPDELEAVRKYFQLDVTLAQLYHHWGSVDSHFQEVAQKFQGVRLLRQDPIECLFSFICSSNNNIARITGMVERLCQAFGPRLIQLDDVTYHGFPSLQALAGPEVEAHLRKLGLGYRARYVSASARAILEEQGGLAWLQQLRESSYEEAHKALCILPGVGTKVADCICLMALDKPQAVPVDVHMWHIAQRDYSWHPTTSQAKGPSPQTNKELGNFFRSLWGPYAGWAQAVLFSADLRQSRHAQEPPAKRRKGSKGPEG
Description: Inhibition of OGG1 by quantifying inhibition of OGG1-mediated cleavage and dissociation of quenched duplex DNA oligonucleotides, measured as fluorescence at 594 nm. To generate a functional strand incision and increase turn-over this assay is coupled to APE1.

[7] = molecular target: T3, Endonuclease 8-like 2 (Homo sapiens) (UniProt Q969S2); conditions: Hit No;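 also: fluorescence at 594 nm reports NEIL2 cutting and release of a quenched double-stranded DNA oligo substrate, reduced signal read as inhibition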
T3 sequence (whole entry): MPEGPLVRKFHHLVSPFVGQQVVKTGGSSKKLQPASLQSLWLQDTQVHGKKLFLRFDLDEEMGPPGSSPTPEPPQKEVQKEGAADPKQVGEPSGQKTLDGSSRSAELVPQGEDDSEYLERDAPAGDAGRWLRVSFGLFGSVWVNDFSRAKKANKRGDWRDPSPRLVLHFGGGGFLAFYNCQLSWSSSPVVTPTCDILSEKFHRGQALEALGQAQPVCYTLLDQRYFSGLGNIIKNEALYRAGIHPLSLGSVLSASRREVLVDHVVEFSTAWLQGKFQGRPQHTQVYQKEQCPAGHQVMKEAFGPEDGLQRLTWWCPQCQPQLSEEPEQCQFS
Description: Inhibition of NEIL2 by quantifying inhibition of NEIL2-mediated cleavage and dissociation of quenched duplex DNA oligonucleotides, measured as fluorescence at 594 nm.

Structure (SMILES)	inhibition ([1]; Compound Concentration 10.0 uM)	inhibition ([2]; Compound Concentration 10.0 uM)	inhibition ([3]; Compound Concentration 10.0 uM)	inhibition ([4]; Compound Concentration 10.0 uM)	inhibition ([5]; Compound Concentration 10.0 uM)	inhibition [6]	inhibition ([7]; Compound Concentration 10.0 uM)	inhibition ([1]; Compound Concentration 1.0 uM)	inhibition ([2]; Compound Concentration 1.0 uM)	inhibition ([3]; Compound Concentration 1.0 uM)	inhibition ([5]; Compound Concentration 1.0 uM)	inhibition ([4]; Compound Concentration 1.0 uM)	inhibition ([7]; Compound Concentration 1.0 uM)
Cc1nc2ccc(Oc3ccc(F)cc3)cc2c(=O)n1C[C@H]1CCCN(C(C)C)C1	-4.48%	-8.54%	-4.71%	6.38%	-3.56%	–	–	–	–	–	–	–	–
Cc1csc(NC(=O)c2cc(F)cc(Oc3cncnc3)c2)n1	3.26%	5.04%	–	-4.5%	4.86%	-8.23%	3.51%	–	–	–	–	–	–
CC[C@@H]1CN(C(=O)NCC(F)(F)F)C[C@@H]1c1cnc2cnc3[nH]ccc3n12	20.8%	36.4%	1.27%	4.1%	2.88%	0.361%	–	–	–	–	–	–	–
N#Cc1cc2c(OCC(O)CN3CCN(C(c4ccccc4)c4ccccc4)CC3)cccc2[nH]1 (racemic)	–	-7.45%	-9.6%	7.06%	-4.67%	-4.64%	-1.98%	–	–	–	–	–	–
COc1cc(C)c(Sc2cnc(NC(=O)c3ccc(CNC(C)C(C)(C)C)cc3)s2)cc1C(=O)N1CCN(C(C)=O)CC1 (centres undefined)	19.5%	37.6%	4.76%	-0.787%	-3.4%	–	–	–	–	–	–	–	–
Cc1ccc(F)cc1C(=O)Nc1ccc(C(=O)N2Cc3cccn3Cc3ccccc32)c(Cl)c1	-2.41%	-0.756%	–	-2.72%	18.1%	-6.45%	-4.48%	–	–	–	–	–	–
c1cc(CN2CCCNCCNCCCNCC2)ccc1CN1CCCNCCNCCCNCC1	1.47%	2.03%	–	–	13.7%	-2.11%	–	–	–	–	–	–	–
N=C(N)NCCC[C@H](NC(=O)C12CC3CC(CC(C3)C1)C2)C(=O)N[C@@H](Cc1ccccc1)C(N)=O	-6%	–	-7.87%	4.9%	13.8%	–	-4.94%	–	–	–	–	–	–
CN1CCN(c2nc(N)c3ccccc3n2)CC1	–	-3.58%	-6.76%	6.68%	17.1%	-6.52%	16%	–	–	–	–	–	–
Cc1c(C(=O)Nc2cccc(C(F)(F)F)c2)cc(-c2ccccc2)n1CCCN1CCOCC1	6.03%	–	-3.84%	0.00926%	-7.69%	-6.32%	–	–	–	–	–	–	–
CC[N+](CC)(CC)CCOc1ccc(/C=C/c2ccccc2)cc1	8.74%	–	1.13%	3.86%	0.568%	–	0.669%	–	–	–	–	–	–
CCOc1cc2ncc(C#N)c(Nc3ccc(OCc4cccc(F)c4)c(Cl)c3)c2cc1NC(=O)/C=C/CN(C)C	–	–	–	–	–	–	–	11.5%	25.8%	3.4%	-5.49%	–	–
c1ccc2oc(-c3csc(C4CCN(Cc5nc6ncccc6[nH]5)CC4)n3)cc2c1	–	76.8%	-7.49%	-4.83%	-1.29%	2.49%	1.3%	–	–	–	–	–	–
Cc1ccccc1N1CCN(S(=O)(=O)C[C@]23CC[C@H](C[C@@H]2NC(=O)[C@@H](N)CCS(C)(=O)=O)C3(C)C)CC1	–	-7.58%	-9.38%	10.9%	20.2%	-1.3%	-8.47%	–	–	–	–	–	–
CC(F)(F)CN1CCOc2c(nn(-c3ccccc3Cl)c2-c2ccc(Cl)cc2)C1=O	–	-6.66%	-4.73%	-3.02%	14.4%	1.85%	4.76%	–	–	–	–	–	–
CN1C(=O)[C@@H](NC(=O)c2cc3ccccc3[nH]2)N=C(c2ccccc2)c2ccccc21	-0.954%	4.69%	-5.09%	–	22.4%	-4.56%	–	–	–	–	–	–	–
CCN1CCN(c2ccc(Nc3cc(N(C)C(=O)Nc4c(Cl)c(OC)cc(OC)c4Cl)ncn3)cc2)CC1	–	–	–	–	–	–	–	20.5%	47.5%	1.97%	1.48%	-0.787%	-7.84%
CCN1CCC[C@H]1CNC(=O)c1c(OC)ccc(Br)c1OC	-6.28%	-0.58%	–	-9.25%	-4.67%	-3.96%	-5.97%	–	–	–	–	–	–

Structure (SMILES)	inhibition ([1]; Compound Concentration 10.0 uM)	inhibition ([2]; Compound Concentration 10.0 uM)	inhibition ([3]; Compound Concentration 10.0 uM)	inhibition ([4]; Compound Concentration 10.0 uM)	inhibition ([5]; Compound Concentration 10.0 uM)	inhibition [6]	inhibition ([7]; Compound Concentration 10.0 uM)	inhibition ([1]; Compound Concentration 1.0 uM)	inhibition ([2]; Compound Concentration 1.0 uM)	inhibition ([3]; Compound Concentration 1.0 uM)	inhibition ([5]; Compound Concentration 1.0 uM)	inhibition ([4]; Compound Concentration 1.0 uM)	inhibition ([7]; Compound Concentration 1.0 uM)
CC(C)(N)C(=O)N[C@H](COCc1ccccc1)C(=O)N1CCC2(CC1)CN(S(C)(=O)=O)c1ccccc12	-6.91%	6.18%	-9.48%	7.36%	-1.74%	–	7%	–	–	–	–	–	–
CCCn1c(=O)c2[nH]c(C3CCCC3)nc2n(CCC)c1=O	-9.38%	6.69%	–	-2.28%	-3.21%	-9.82%	1.01%	–	–	–	–	–	–
CCCCCCCCCCCCC/C=C/[C@@H](O)[C@@H](N)COP(=O)(O)O	–	-7.17%	-6.96%	4.69%	-7.6%	2.2%	6.5%	–	–	–	–	–	–
Cc1c(-c2cc(-c3ccccc3Cl)no2)cnn1C1CCNCC1	-1.2%	-8.91%	-3.3%	5.79%	12.9%	–	-0.35%	–	–	–	–	–	–
C[C@@H](NCCCc1cccc(C(F)(F)F)c1)c1cccc2ccccc12	8.59%	-8.6%	–	1.28%	-5.41%	-4.37%	13.5%	–	–	–	–	–	–
Cc1c(C(=O)Nc2ccc(N3C[C@@H](C)O[C@@H](C)C3)nc2)cccc1-c1ccc(OC(F)(F)F)cc1	-0.0333%	-4.8%	–	-5.39%	-3.21%	-6.4%	7.5%	–	–	–	–	–	–
CN(c1ncccc1CNc1ccnc(-c2cc3cc(Cl)ccc3[nH]2)n1)S(C)(=O)=O	14.4%	37.5%	1.54%	8.2%	-4.79%	–	1.85%	–	–	–	–	–	–
CC(C)CCC[C@@H](C)[C@H]1CC[C@H]2[C@@H]3[C@H](O)C=C4C[C@@H](O)CC[C@]4(C)[C@H]3CC[C@]12C	-3.67%	-0.558%	–	8.25%	-1.74%	-2.82%	-6.22%	–	–	–	–	–	–
O=C1COc2nccc(-c3ccccc3F)c2CN1Cc1cc(C(F)(F)F)cc(C(F)(F)F)c1	-3.96%	–	–	2.76%	2.66%	-4.66%	-2.98%	–	–	–	–	–	–
FC(F)c1nc2ccccc2n1-c1nc(N2CCOCC2)nc(N2CCOCC2)n1	27%	32.9%	-3.48%	–	7.06%	3.08%	–	–	–	–	–	–	–
Cc1cn2cc(CC(=O)N3CCC4(CC3)CN(Cc3ccc(-n5nccn5)cc3Cl)C4)nc2s1	-0.227%	-1.26%	–	-6.88%	6.32%	-2.88%	–	–	–	–	–	–	–
CCCC(=O)C1CCN(c2ncnc3c2CN(C(=O)c2ccc(-c4ccccc4)cc2)CC3)CC1	–	–	-3.39%	0.75%	12.1%	-4.93%	-0.605%	–	–	–	–	–	–
CCCC(=O)C1(c2ccccc2)CCN(C(=O)[C@@H](Cc2ccc(OC)cc2)NC(=O)[C@@H](N)Cc2cncn2C)CC1	–	–	-7.56%	0.454%	-2.73%	-8.78%	-1.37%	–	–	–	–	–	–
CCCCCCCCc1ccc(CCC(N)(CO)CO)cc1	1.32%	26.4%	–	4.69%	-6.87%	-9.6%	-1.98%	–	–	–	–	–	–
O=C(NCc1ccc(F)cc1)N1CCN2C(=O)OC(c3ccccc3)(c3ccccc3)C2C1 (centres undefined)	10.1%	6.86%	–	-1.09%	-0.275%	1.66%	9.75%	–	–	–	–	–	–
O=C(Nc1c(-c2cccs2)nc2ccc(Cl)cn12)c1ccc(Cl)cc1	–	–	-4.66%	0.454%	13.8%	-9.75%	6.02%	–	–	–	–	–	–
C=CCN1C[C@H](C)N([C@H](c2ccc(C(=O)N(CC)CC)cc2)c2cccc(O)c2)C[C@H]1C	10.6%	4.87%	–	-6.58%	1.92%	-6.71%	6.25%	–	–	–	–	–	–
